Consider eight compounds from patent US20060128699A1, “Novel pharmacophore for the discovery and testing of na,k-atpase inhibitor compositions and methods for their use in treating cardiovascular diseases and conditions” (priority 2002, published 2006).

Assay [1] has as its target T1, Na, K-ATPase (Ovis aries, UniProt P04074).
T1 construct: Na, K-ATPase will be purified from the outer medulla of frozen lamb kidney; from tissue; host or cells: outer medulla of frozen lamb kidney
The assay can be described thus: NKA assay started by addition of ATP. The format is biochemical, lamb. The conditions noted are these: for ratio (digoxin) / IC50: assay started by addition of ATP; for ratio (digoxin): IC50_aver. relative to digoxin.
Excerpt: (§1) Briefly Na, K-ATPase will be purified from the outer medulla of frozen lamb kidney. Competitive binding assays will be performed in the presence and absence of varying concentrations of the potential inhibitors. Inhibition studies will be carried out with and without varying concentrations of the potential inhibitors, and the NADPH oxidation rate in the presence and absence of the inhibitors will be determined.

For assay [2], the target named is T1, Na, K-ATPase. Nature of the assay: NKA assay started by addition of KCl. It is filed as biochemical, lamb. The conditions noted are these: for ratio (digoxin): IC50_aver. relative to digoxin.
Excerpt: as §1
Assay [3] concerns the target sheep 1α-subunit of the Na, K-ATPase, Q111R and N122D mutant (Ovis aries, UniProt P04074, N127D/Q116R). As to conditions: Q111R and N122D versus wild-type sheep catalytic subunit; cited from earlier work.
Assay [4] deals with rat 1α-subunit of the Na, K-ATPase (Rattus norvegicus, UniProt P06685). The conditions noted are these: cited from earlier work.
Assay [5] addresses sheep 1α-subunit of the Na, K-ATPase, D121N mutant (Ovis aries, UniProt P04074, D126N). As to conditions: D121N versus wild-type sheep; cited from earlier work.
Assay [6] concerns the target human 1α-subunit of the Na, K-ATPase (Homo sapiens, UniProt P05023). The conditions noted are these: cited from earlier work.
Where [7] appears, read: determination 1, read-out: IC50_1.
[8] abbreviates: determination 2, read-out: IC50_2.
[9] abbreviates: assay started by addition of KCl.
[10] abbreviates: determination 3, read-out: IC50_3.
Setting [11] is: assay started by addition of KCl, average, read-out: IC50_aver.
Setting [12] is: assay started by addition of KCl, determination 1, read-out: IC50_1.
Setting [13] is: assay started by addition of KCl, determination 2, read-out: IC50_2.

Values joined by “and” are separate entries in the source; they are usually repeats but may differ in a detail not shown here. Equal entries are not always repeated.

In the case of `Oc1cc(O)c2c(c1)O[C@H](c1ccc(O)c(O)c1)[C@@H](O)C2` [Compound 9, (+)-Catechin Hydrate], in assay [1], the “ratio (digoxin)” value is reported as 664. Further, the IC50 in assay [1] (average, read-out: IC50_aver.) came out at 270 µM; in assay [1] (setting [7]), 287 µM; in assay [1] (setting [8]), 253 µM.
Regarding `O=C1C=CC2C(=C1[N+](=O)[O-])Oc1c(ccc(O)c1[N+](=O)[O-])C2c1ccccc1C(=O)O` (stereo not shown) [Compound 14, 4′-5′ Di nitroflorescein], the IC50 in assay [2] (IC50_1, assay started by addition of KCl, determination 1) turned out to be 7.81 µM; in assay [2] (IC50_2, assay started by addition of KCl, determination 2), 9.53 µM; in assay [2] (IC50_aver., assay started by addition of KCl, average), 8.69 µM; in assay [1] (average, read-out: IC50_aver.), 8.75 µM; in assay [1] (setting [7]), 5.69 µM; in assay [1] (setting [8]), 8.87 µM. Besides, the IC50 in assay [1] (setting [10]) worked out at 11.7 µM. The “ratio (digoxin)” value in assay [2] (setting [9]) worked out at 869; in assay [1], 21.5. For the same compound, the “ATPase inhibition (in words)” value in assay [1] is recorded as “strong ATPase inhibition”.
Regarding `Cc1cc(O)c2c(c1)C(=O)c1cc(O)cc(O)c1C2=O` [Compound 15, Emodin], the “ratio (digoxin)” value in assay [1] is 220. For the same compound, the IC50 came out at 89.8 µM in assay [1] (average, read-out: IC50_aver.); 32.2 µM in assay [1] (setting [7]); 75.5 µM in assay [1] (setting [8]); 162 µM in assay [1] (setting [10]).
On to `CC(CCc1ccc(O)cc1)NCCc1ccc(O)c(O)c1` (stereo not shown) [Compound 25, R—S Dobutamine], for which, in assay [1], the “ratio (digoxin)” value was 173. Moreover, the IC50 in assay [1] (average, read-out: IC50_aver.) stood at 70.6 µM; in assay [1] (setting [7]), 64.4 µM; in assay [1] (setting [8]) it was 76.8 µM.
`COc1cccc2c1Sc1ccccc1C(=O)C2` [Compound 27]: the “ratio (digoxin)” value in assay [1] was found to be 497. Further, the IC50 came out at 203 µM in assay [1] (average, read-out: IC50_aver.); 386 µM in assay [1] (setting [7]); 102 µM in assay [1] (setting [8]); 120 µM in assay [1] (setting [10]).
As for `COc1cc2c(c(OC)c1)Sc1ccccc1C(=O)C2` [Compound 28], the “ratio (digoxin)” value in assay [2] (setting [9]) worked out at 6764. Besides, the IC50 in assay [2] (setting [11]) was 67.6 µM; in assay [2] (setting [12]), 75.6 µM; in assay [2] (setting [13]), 59.7 µM; in assay [1] (average, read-out: IC50_aver.), 359 µM and 38.1 µM; in assay [1] (setting [8]), 42.5 µM; in assay [1] (setting [10]) it was 36.3 µM. Besides, the IC50 in assay [1] (determination 4, read-out: IC50_4) was found to be 145 µM. Further, the “ATPase inhibition (in words)” value in assay [1] is reported as “strong ATPase inhibition”.
Take `C[C@@H]1O[C@@H](O[C@H]2C[C@@H](O)[C@]3(CO)[C@H]4[C@H](O)C[C@]5(C)[C@@H](C6=CC(=O)OC6)CC[C@]5(O)[C@@H]4CC[C@]3(O)C2)[C@H](O)[C@H](O)[C@H]1O` [ouabain]: the “less sensitive to ouabain than wild-type” value in assay [3] was 1150 fold. In addition, the “sensitivity to ouabain inhibition (in words)” value in assay [4] (rat subunit) is given as “insensitive”. Moreover, the “loss in ouabain inhibition” value in assay [4] (rat α1-subunit) is recorded as approximately 1000 fold. Also, the “decrease in sensitivity to ouabain” value in assay [5] was 1000 fold. Further, the “sensitivity to ouabain (in words)” value in assay [6] is “sensitive”.
With Lacmoid [Compound 19], the “ratio (digoxin)” value in assay [2] (setting [9]) was determined as 340; in assay [1], 32.9. For the same compound, the IC50 in assay [2] (setting [11]) is 3.4 µM; in assay [2] (setting [12]) it was 3.55 µM; in assay [2] (setting [13]) it was 3.25 µM; in assay [1] (average, read-out: IC50_aver.), 13.4 µM; in assay [1] (setting [7]), 11.2 µM; in assay [1] (setting [8]), 192 µM. For the same compound, the IC50 in assay [1] (setting [10]) turned out to be 9.7 µM. Moreover, in assay [1], the “ATPase inhibition (in words)” value is recorded as “strong ATPase inhibition”.
